Data: ChEMBL document CHEMBL1156646, “Natural products chemistry and taxonomy of the marine cyanobacterium Blennothrix cantharidosmum” (J Nat Prod, 2008)
Active and inactive are the calls of the source. No cut-off for these calls is given here.

Experiments:
[1] = test system: Plasmodium falciparum; test: Antimalarial activity against Plasmodium falciparum at 10 ug/ml; assay type: functional, organism-based
[2] = test system: Plasmodium falciparum; test: Antimalarial activity against Plasmodium falciparum; assay type: functional, organism-based
[3] = test system: Vibrio harveyi; test: Inhibition of bioluminescence in wild type Vibrio harveyi BB120 by quorum sensing assay; assay type: functional, organism-based, Vibrio harveyi ATCC BAA-1116

IC50 [2] [µM] | IC50 [3] [µM] | Compound | Activity [1]
 |  | CCCCCCCC[C@H](C)C(=O)N1CCC[C@H]1C(=O)O[C@@H](C(=O)O[C@H](C(=O)O)C(C)C)C(C)C | inactive
2 |  | CCCC[C@H](C)C[C@H](C)C(=O)N1CCC[C@H]1C(=O)O[C@@H](C(=O)O[C@H](C(=O)O)[C@@H](C)CC)[C@@H](C)CC [TUMONOIC ACID I] | 
 | 62 | CCCCCCCCC(C)[C@H](OC(C)=O)[C@H](C)C(=O)N1CCC[C@H]1C(=O)O (stereo partly drawn) [TUMONOIC ACID F] | inactive
 |  | CCCCCCC/C=C(\C)[C@@H](O)[C@@H](C)C(=O)N1CCC[C@H]1C(=O)O | inactive
 |  | CCCCCCCC[C@H](C)C(=O)N1CCC[C@H]1C(=O)O | inactive
 |  | CCCCCCCC[C@H](C)C(=O)N1CCC[C@H]1C(=O)O[C@@H](C(=O)O[C@@H](C)C(=O)O)[C@@H](C)CC | inactive
 |  | CCCCC(C)/C=C(\C)[C@H](O)[C@H](C)C(=O)N1CCC[C@H]1C(=O)O (stereo partly drawn) | inactive
